Experimental data taken from patent publication US20210023089A1, “Compositions Useful for Treating Herpes Simplex Keratitis, and Methods Using Same” (priority 2013, published 2021).

Tests used:
ATM [1] = test: ATM activation (pChk2 Western blot) in HSV-1 infected hTCEpi cells; type: cell-based, human; settings: for effect on ATM activation (pChk2 staining): hTCEpi infected with HSV-1 at a range of MOIs, 1 hpi, PAA 400 μg/ml, CHX 5 μg/ml
Method: Standard protocol was followed for Western blot analysis. Cell lysates were collected in Laemmli buffer, vortexed, and boiled at 95° C. for 5 min. Protein concentrations were measured by reducing agent-compatible BCA assay. SDS-PAGE was followed by transfer onto a PVDF membrane, which was then blocked in 5% BSA. Primary antibody staining was performed overnight and blots were visualized on film or with the Odyssey near-infrared system (LI-COR, Lincoln, Nebr.). Primary antibodies against the following proteins were used: ICP0 (Virusys Corporation, Taneytown, Md.), ICP4, PML, and nucleolin (Santa Cruz Biotechnology, Santa Cruz, Calif.), ICP8, glycoproteins B and C, ATM and pATM-Ser1981 (Rockland, Gilbertsville, Pa.), Chk2 and pChk2-Thr68 (Cell Signaling, Danvers, Mass.).
(§1) hTCEpi, EPC2, and OKF6 are normal human epithelial cells from cornea, esophagus, and palate, respectively. HEK293 are human embryonic kidney epithelial cells. Cells were treated with tissue culture grade KU-55933 (10 μM), cycloheximide (5 μg/ml), phosphonoacetic acid (400 μg/ml), and H2O2 (150 μM). Viral particles were pre-treated with UV light at 0.2 J/cm^2.
Cultured cells were infected by applying the desired viral load in an inoculum volume equal to 10% of the normal volume of growth medium. During infection, cells were maintained at 37° C. and 5% CO2 and rocked every 10-15 min for 1 hour. Cells were then rinsed thoroughly with PBS and overlaid with fresh medium. For synchronized infections, virus was allowed to adsorb to cells while rocking at 4° C. After 1 hour, cells were transferred to 37° C. and 5% CO2 to initiate synchronized infection.

ATM [2] = test: pATM immunofluorescence in HEK293 cells transfected with purified HSV-1 genome; type: cell-based, human; settings: HEK293 transfected with HSV-1 KOS genome, PAA for 24 hours
Method: Transfection of plasmids was done with GenDrill (BamaGen, Gaithersburg, Md.), whereas transfection of BACs was accomplished with Lipofectamine transfection reagent (Invitrogen, Carlsbad, Calif.). All transfections followed standard protocols and manufacturer's instructions. Medium was changed at 6 hour post transfection.
Cells were grown on cover slips, treated as indicated, fixed in 3% paraformaldehyde/2% sucrose solution for 10 min, and permeabilized with 0.5% Triton X-100 for 5 min. Indirect immunofluorescence was performed with primary antibodies overnight followed by secondary antibody staining for 2 hours. Primary antibodies were the same as those used for Western blotting. Nuclei were counterstained with […] of Höchst 33258.
as §1

[3] = system: dlsptk strain of HSV-1 (TK mutant); test: qPCR of genome replication of drug-resistant HSV-1 in hTCEpi cells; type: cell-based; settings: MOI 0.1, 16 hpi, KU-55933 10 μM, acyclovir 50 μg/mL
Method: All cells were cultured at 37° C. and 5% CO2 and supplemented with 100 U/mL penicillin and […]. Human corneal epithelial cells immortalized with hTERT (hTCEpi; Robertson, et al., 2005, Invest Ophthalmol Vis Sci. 46:470-478) were grown in complete keratinocyte growth medium 2 (KGM-2; Lonza, Basel, Switzerland). African green monkey kidney fibroblasts (CV-1; American Type Culture Collection, Manassas, Va.) were grown in Dulbecco's modified Eagle's medium (DMEM; Cellgro, Manassas, Va.) supplemented with 10% FBS. The KOS strain of HSV-1 was used in the in vitro and ex vivo infections, whereas McKrae strain was used for in vivo mouse experiments, and TK mutant dlsptk strain (Coen et al., 1989, Proc Natl Acad Sci USA 86:4736-4740) was used in the drug resistance experiments. All viral stocks were titered on CV-1 monolayers.
The following strains of HSV-1 were used: KOS, ICPO-null, HFEM, and tsB7. Subconfluent monolayers of cells were grown in six-well plates. Drug treatments were administered 45 minutes prior to infection and continued for the entire duration of each experiment. Unless indicated otherwise, KU-55933 (Batch No. 5, 99.7% purity; Tocris Bioscience, Bristol, UK) was used at 10 μM final concentration, phosphonoacetic acid (PAA) at 400 μg/mL (Sigma-Aldrich, St. Louis, Mo.), and acyclovir at 50 μg/mL (Sigma-Aldrich). KU-55933 was dissolved in dimethyl sulfoxide (DMSO), and the final concentration of DMSO in both KU-55933 and mock treatment in the in vitro and the ex vivo experiments was 0.1%.
Viral genome replication and transcription were measured by quantitative PCR (qPCR). Total DNA and RNA from infected cells were isolated using the DNeasy Blood & Tissue Kit and the RNeasy Mini Kit, respectively (QIAGEN, Hilden, Germany). RNA was converted to cDNA using qScript (Quanta BioSciences, Gaithersburg, Md.). […] Transcription of the three gene families was measured with primers for RL2 (ICPO), UL30 (DNA polymerase catalytic subunit), and UL44 (gC), with reference primers for the 18S ribosomal RNA (rRNA).

ATM [4] = biological target: T1, ATM (Homo sapiens, UniProt Q13315); test: pATM Western blot in bleomycin-damaged ex vivo human corneas (bioavailability); type: cell-based; settings: bleomycin 200 μg/mL 1 hour, KU-55933 10 μM 1 hour pretreatment
T1 construct: The epithelial layers were collected for protein lysates and analyzed by Western blot with antibodies against pATM (Ser1981) and total ATM; tissue Lions Eye Bank of Delaware Valley; host or cells: epithelial layer of explanted human corneas
T1 sequence (Q13315 whole entry): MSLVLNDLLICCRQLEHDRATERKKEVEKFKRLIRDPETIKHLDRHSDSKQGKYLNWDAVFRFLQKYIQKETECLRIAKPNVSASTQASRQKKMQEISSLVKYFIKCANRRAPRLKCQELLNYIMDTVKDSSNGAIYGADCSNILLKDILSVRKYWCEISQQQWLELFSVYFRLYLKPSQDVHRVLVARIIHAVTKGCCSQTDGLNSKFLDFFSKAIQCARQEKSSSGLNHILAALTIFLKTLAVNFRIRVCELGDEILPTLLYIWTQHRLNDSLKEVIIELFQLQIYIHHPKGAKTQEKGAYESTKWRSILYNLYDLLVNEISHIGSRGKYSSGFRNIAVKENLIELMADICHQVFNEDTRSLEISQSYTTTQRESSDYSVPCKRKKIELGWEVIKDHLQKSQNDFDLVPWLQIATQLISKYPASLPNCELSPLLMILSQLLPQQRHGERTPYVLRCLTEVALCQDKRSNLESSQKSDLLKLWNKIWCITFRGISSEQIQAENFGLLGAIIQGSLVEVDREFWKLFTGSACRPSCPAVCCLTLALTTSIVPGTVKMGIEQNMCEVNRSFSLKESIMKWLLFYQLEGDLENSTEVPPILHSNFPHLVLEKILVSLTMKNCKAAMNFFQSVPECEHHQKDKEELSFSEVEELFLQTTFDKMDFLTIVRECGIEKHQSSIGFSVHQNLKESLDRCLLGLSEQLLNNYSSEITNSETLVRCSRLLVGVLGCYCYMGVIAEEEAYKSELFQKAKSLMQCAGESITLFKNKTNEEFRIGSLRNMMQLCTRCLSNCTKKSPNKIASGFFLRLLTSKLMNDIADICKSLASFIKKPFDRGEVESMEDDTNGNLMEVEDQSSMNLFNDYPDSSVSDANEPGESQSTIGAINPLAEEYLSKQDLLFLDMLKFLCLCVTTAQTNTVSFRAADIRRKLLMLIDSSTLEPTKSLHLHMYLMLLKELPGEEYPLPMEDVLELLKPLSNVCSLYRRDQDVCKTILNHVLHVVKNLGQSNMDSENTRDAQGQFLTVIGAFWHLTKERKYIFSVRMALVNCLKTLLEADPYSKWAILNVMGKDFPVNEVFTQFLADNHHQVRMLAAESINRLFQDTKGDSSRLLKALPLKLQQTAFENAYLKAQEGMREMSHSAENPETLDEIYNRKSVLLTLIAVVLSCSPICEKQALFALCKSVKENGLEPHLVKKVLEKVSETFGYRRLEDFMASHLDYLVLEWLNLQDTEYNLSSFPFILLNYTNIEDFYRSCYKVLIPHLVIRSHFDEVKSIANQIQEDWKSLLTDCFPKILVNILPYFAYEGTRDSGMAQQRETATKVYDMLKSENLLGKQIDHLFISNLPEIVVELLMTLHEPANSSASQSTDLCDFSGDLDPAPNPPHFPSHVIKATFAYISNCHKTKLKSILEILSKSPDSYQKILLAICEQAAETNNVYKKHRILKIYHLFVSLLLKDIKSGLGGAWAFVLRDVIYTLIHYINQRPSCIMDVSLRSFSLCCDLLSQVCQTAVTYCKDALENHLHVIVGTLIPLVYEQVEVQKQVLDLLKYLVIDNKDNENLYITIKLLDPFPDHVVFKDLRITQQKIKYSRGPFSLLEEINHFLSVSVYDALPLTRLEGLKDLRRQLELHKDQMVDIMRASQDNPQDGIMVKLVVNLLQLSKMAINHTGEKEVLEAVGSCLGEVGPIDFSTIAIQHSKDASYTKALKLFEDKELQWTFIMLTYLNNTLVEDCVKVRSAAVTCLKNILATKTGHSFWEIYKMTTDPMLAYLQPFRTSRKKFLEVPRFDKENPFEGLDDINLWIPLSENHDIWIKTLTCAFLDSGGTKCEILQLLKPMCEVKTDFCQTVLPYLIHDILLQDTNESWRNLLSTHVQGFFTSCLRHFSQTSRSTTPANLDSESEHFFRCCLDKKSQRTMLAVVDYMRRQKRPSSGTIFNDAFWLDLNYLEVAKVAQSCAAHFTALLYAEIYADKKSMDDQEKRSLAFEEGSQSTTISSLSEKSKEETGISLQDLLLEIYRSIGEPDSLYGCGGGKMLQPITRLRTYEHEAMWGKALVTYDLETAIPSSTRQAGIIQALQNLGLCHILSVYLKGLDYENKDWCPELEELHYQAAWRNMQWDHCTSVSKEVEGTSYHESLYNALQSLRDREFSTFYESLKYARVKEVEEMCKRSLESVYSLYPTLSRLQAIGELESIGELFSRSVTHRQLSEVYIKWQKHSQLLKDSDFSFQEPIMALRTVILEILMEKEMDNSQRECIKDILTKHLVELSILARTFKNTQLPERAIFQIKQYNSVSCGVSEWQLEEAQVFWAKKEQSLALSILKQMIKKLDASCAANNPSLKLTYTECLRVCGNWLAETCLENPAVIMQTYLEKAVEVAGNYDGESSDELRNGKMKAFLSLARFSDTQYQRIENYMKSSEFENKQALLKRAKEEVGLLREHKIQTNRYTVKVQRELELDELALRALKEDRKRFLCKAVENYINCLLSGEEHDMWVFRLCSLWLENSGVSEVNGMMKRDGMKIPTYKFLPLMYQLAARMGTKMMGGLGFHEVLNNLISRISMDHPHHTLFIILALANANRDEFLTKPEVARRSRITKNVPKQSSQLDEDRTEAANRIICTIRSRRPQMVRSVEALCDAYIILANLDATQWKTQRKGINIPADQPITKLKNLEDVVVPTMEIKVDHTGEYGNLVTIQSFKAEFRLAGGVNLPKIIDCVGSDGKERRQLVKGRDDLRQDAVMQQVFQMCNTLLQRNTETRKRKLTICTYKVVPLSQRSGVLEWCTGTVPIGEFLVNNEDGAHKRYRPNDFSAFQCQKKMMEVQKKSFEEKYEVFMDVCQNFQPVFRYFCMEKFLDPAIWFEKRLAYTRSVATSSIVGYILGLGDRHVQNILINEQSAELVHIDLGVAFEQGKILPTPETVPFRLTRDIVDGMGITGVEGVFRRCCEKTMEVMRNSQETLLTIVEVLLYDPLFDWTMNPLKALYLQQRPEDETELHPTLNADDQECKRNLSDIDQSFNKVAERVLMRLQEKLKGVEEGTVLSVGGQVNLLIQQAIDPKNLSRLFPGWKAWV
Method: Human corneas were obtained from the Lions Eye Bank of Delaware Valley. Rabbit corneas were excised from intact fresh eyeballs of young (8-12 weeks) albino rabbits (Pel-Freez Biologicals, Rogers, Ark.). Protocol (Alekseev et al., 2012, J Vis Exp 69:e3631) for ex vivo corneal culture, infection, and treatment was followed closely. Briefly, corneoscleral buttons were excised and rinsed in PBS containing 200 U/mL penicillin and 200 μg/mL streptomycin. The endothelial concavity was filled with culture medium containing 1% low melting temperature agarose. The corneas were cultured epithelial side up in MEM medium supplemented with nonessential amino acids (1×), 2 mM […], 200 U/mL penicillin, and 200 μg/mL streptomycin. The next day, they were infected with 1×10^4 plaque forming units (PFU)/cornea of strain KOS HSV-1 for 1 hour, rinsed, and overlaid with fresh medium. Drug treatments were administered at the same concentrations as for cultured cells. For KU-55933 bioavailability assessment, corneas were treated with bleomycin (200 μg/mL) for 1 hour. […] Treatment toxicity was assessed by briefly staining the cornea with fluorescein (1% wt/vol in PBS) and imaging the epithelial defects with 464-nm wavelength blue light (LDP LLC, Carlstadt, N.J.).
Standard protocol was followed for Western blot analysis. […] Protein concentrations were measured by bicinchoninic acid (BCA) assay. […]

C[C@@H]1C[C@@H]([C@H](O)CC2CC(=O)NC(=O)C2)C(=O)[C@@H](C)C1 [CHX, cycloheximide]
effect on pChk2 staining in PML-depleted cells (ATM [1]; PML-depleted hTCEpi cells, compared with WT hTCEpi cells): same partial reduction | effect on ATM activation (pChk2 staining) (ATM [1]): partial inhibitory effect | effect on ATM activation by d120 (ICP4-null strain) (ATM [1]; hTCEpi infected with d120, CHX 5 μg/ml): not affected

O=C(O)CP(=O)(O)O [PAA, phosphonoacetic acid]
ATM activation (pATM staining) in treated transfected cells (ATM [2]): not hindered in ATM activation | effect on ATM activation (pChk2 staining) (ATM [1]): no effect

Nc1nc2c(ncn2COCCO)c(=O)[nH]1 [acyclovir]
genome replication of dlsptk strain (qPCR) [3]: largely unresponsive

bleomycin
pATM level in corneal epithelium (ATM [4]): high level of pATM
